# Assays:
# HeLa-Cx43 cells = assay: Ca2+-FLIPR assay, histamine-induced calcium influx; assay type: cell-based; conditions: limited cholesterol depletion, FIG. 11D
# Protocol: Ca^2+-FLIPR Assay—HeLa-Cx43 cells were loaded with […] FLUO-4/AM and 0.04% Pluronic F-127 (both from Molecular Probes) in HBS but with 20 mM HEPES and 2.5 mM probenecid as described previously (20). After loading, cells were washed twice with HBS by an automated plate washer (Denley Cellwash, Labsystems) and transferred to the FLIPR (Molecular Devices). The FLIPR integrates an argon laser excitation source, a 96-well pipettor, and a detection system utilizing a CCD imaging camera. […] of 3× histamine concentrations were delivered within 2 seconds simultaneously to all of the wells containing […] of HBS. Fluorescence emissions from the 96-wells were monitored simultaneously at an emission wavelength of 515 nm after excitation with 488 nm (F488). Fluorescence data were collected at 0.25 Hertz, 48 seconds before and 8 minutes after stimulation, and analyzed off-line. Histamine response amplitudes were determined from the fluorescence at 3.2 minutes (peak of calcium influx) of the solvent control-subtracted and base-line-corrected traces, and averaged over 3-4 wells of same transfectants, receiving the same stimulus. EC50 values and curves were derived from fitting the function f(x)=(a−d)/(1+(x/C)nH)+d to the data by non-linear regression with a=minimum, d=maximum, C=EC50, and nH=Hill coefficient. […]
# MEC-2 = assay: Detergent-resistant membrane (DRM) fractionation by density gradient centrifugation; assay type: cell-based, C. elegans; conditions: limited cholesterol depletion with MBCD, FIG. 1D
# Protocol: (§1) Preparation of Detergent-Resistant Membrane Domains and Cholesterol Measurement—For preparation of low-density Triton® X-100—insoluble membrane domains (DRM; LDF) HEK 293T cells were homogenized by 20 strokes in a Dounce homogenizer in 1 ml of MBS buffer (250 mM NaCl, 5 mM EDTA, 10 mM Tris, pH 7.4, proteinase inhibitors) in the presence of 1% Triton® X-100 and centrifuged for ten minutes at 3,000×g at 4° C. The lysates were incubated for 45 minutes on ice in the presence of 1% Triton® X-100, adjusted to 45% sucrose and pipetted at the bottom of an ultracentrifuge tube. Samples were then overlaid with a sucrose step gradient (2 ml of 30% sucrose and 1 ml of 5% sucrose in MBS) as described previously {Huber, 2003 #205}. Gradients were centrifuged for 20 hours at 200,000×g at 4° C. in a swing-out rotor, and seven fractions ([…] each) were collected starting from the top and analyzed by SDS-PAGE. Cholesterol was measured using the Amplex® Red Cholesterol Assay Kit (Molecular Probes).
# (§2) Cell Culture Studies. Most cell studies used HEK 293T cells that were grown in DMEM as described [Huber et al. (2001) J. Biol. Chem. 18:18]. Cholesterol-depleted cells were prepared by growing cells in DMEM with pravastatin (8 μM) for two days and then methyl-β-cyclodextrine (MBCD; 5 mM) for 30 minutes just before the experiment. […]
# Podocin [1] = assay: Multimerization by velocity gradient centrifugation; assay type: cell-based, mouse; conditions: limited cholesterol depletion of Podocin-expressing cells, FIG. 5B
# Protocol: PHB protein multimerization was studied by velocity gradient centrifugation and blue native gel electrophoresis [Schagger et al. (1991) Anal. Biochem. 199: 223-31]. For preparation of Podocin multimeric complexes HEK293T cells were lysed in 1 ml of Mes-buffered saline (MBS) in the presence of 1% Triton® X-100 and centrifuged for 10 minutes at 1,000×g at 4° C. After centrifugation, the supernatant was collected and SDS was added at a final concentration of 0.1% and incubated for 20 minutes on ice. Thereafter, the lysate was cleared by centrifugation for 15 minutes at 100,000×g. Four milliliters of a discontinuous sucrose gradient (40-5%) was layered on top of a 60% sucrose cushion in a Beckman ultracentrifuge tube. One milliliter of the cell lysate was adjusted with 1 ml of MBS, added on top of this gradient and subjected for centrifugation for 16 hours at 180,000×g at 4° C. in a Beckman SW-41 rotor. After centrifugation 2 ml of the supernatant were discarded and 8 fractions (500 μl each) were collected starting from the top and analyzed by SDS-PAGE.
# Previously it was shown that shown that Podocin homo-oligomerizes and forms high-molecular weight complexes by homophilic interactions that require the PHB-domain [Huber et al. (2003) Hum. Mol. Genet. 12:3397-405]. MEC-2 also homo-oligomerizes (infra) as do other PHB-domain proteins [Umlauf et al. (2006) J. Biol. Chem.]. […]
# Podocin [2] = target: T1, Podocin (Mus musculus, UniProt Q91X05); assay: Detergent-resistant membrane (DRM) fractionation by density gradient centrifugation; assay type: cell-based; conditions: limited cholesterol depletion with MBCD; readdition of cholesterol, FIG. 1D
# T1 construct: expressed in transfected cells; host or cells: HEK 293T
# T1 sequence (Q91X05 1-385): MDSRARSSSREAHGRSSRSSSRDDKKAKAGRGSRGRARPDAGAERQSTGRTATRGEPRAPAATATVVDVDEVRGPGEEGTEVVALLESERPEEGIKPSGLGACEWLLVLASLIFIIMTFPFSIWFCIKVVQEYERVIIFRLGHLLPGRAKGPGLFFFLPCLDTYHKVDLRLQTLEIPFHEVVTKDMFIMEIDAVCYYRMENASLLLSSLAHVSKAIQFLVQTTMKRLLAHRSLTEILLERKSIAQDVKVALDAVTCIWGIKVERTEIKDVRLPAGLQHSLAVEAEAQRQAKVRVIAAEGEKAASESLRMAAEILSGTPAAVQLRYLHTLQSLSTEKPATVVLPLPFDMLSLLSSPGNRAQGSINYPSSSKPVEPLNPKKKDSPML
# Protocol: as §1, §2
substance,measurement,setting,value
methyl-β-cyclodextrin [MBCD],Podocin-dependent stimulation of Ca2+ influx,HeLa-Cx43 cells,abolished
same,MEC-2 in DRM fractions,MEC-2,loss of Podocin and MEC-2 from the DRM fractions
same,formation of high-molecular weight complexes,Podocin [1],did not interfere
same,Podocin in DRM fractions,Podocin [2],loss of Podocin and MEC-2 from the DRM fractions

# Source: patent US20090175845A1, “METHODS FOR IDENTIFYING COMPOUNDS THAT MODULATE PHB DOMAIN PROTEIN ACTIVITY AND COMPOSITIONS THEREOF” (THE TRUSTEES OF COLUMBIA UNIVERSITY IN THE CITY OF NEW YORK, priority 2005, published 2009)
